Among the data in article PMC6385122, “Design and Synthesis of Arylamidine Derivatives as Serotonin/Norepinephrine Dual Reuptake Inhibitors” (Molecules, 2019) are melting point and inhibition values, retold here.

Counter-ions that a name gives are not always drawn.

Series [1] addresses T1, NE reuptake (NE transporter) (Rattus norvegicus, UniProt Q63380).
T1 construct: from tissue; host or cells: Wistar rat brain (procerebrum; crude synaptosomal supernatant)
The series can be described thus: Inhibition of NE reuptake in rat brain synaptosome (3H-NE uptake). It counts as biochemical. Conditions: 10 μM, read-out: NE reuptake percent inhibition. The procedure:
(§1) All the target compounds were evaluated for their inhibitory activity against the reuptake of 5-HT and NE at the cellular level. Rat brain tissue was used for the uptake test, which included ^3H-5-HT and ^3H-NE [15]. 1-[7,8-^3H]-Noradrenaline and 5-hydroxy-[^3H]-tryptamine trifluoroacetate were obtained from Amersham Corporation.
(§2) Adult male Wistar rats were used. Animals were killed by decapitation and the whole brain, with the exception of the brainstem and cerebellum, was quickly removed. The procerebrum region was prepared, weighed, and homogenized in 10 volumes of ice-cold 0.32 mol/L sucrose solution using a glass homogenizer. The homogenate was centrifuged at 1000× g and 4 °C for 10 min. The supernatant was decanted and used for the uptake experiments. […] For each assay, three tubes were incubated with the vehicle (20 µL) at 0 °C in an ice bath. After incubation, the tubes were immediately filtered with a cell harvester. The fiberglass filter membrane was washed three times with ice-cold saline, placed in a scintillation vial, and counted in liquid scintillation cocktail (4 mL). Active uptake was the difference between the counts per minute at 37 and 0 °C. The percent inhibition at each drug concentration was the mean of three measurements.

In series [2] the target is T2, 5-HT reuptake (5-HT transporter) (Rattus norvegicus, UniProt P31652).
T2 construct: from tissue; host or cells: Wistar rat brain (procerebrum; crude synaptosomal supernatant)
The series can be described thus: Inhibition of 5-HT reuptake in rat brain synaptosome (3H-5-HT uptake). It counts as biochemical. Particulars: 10 μM, read-out: 5-HT reuptake percent inhibition. The procedure:
as §1, §2

T1 sequence (Q63380 1-617): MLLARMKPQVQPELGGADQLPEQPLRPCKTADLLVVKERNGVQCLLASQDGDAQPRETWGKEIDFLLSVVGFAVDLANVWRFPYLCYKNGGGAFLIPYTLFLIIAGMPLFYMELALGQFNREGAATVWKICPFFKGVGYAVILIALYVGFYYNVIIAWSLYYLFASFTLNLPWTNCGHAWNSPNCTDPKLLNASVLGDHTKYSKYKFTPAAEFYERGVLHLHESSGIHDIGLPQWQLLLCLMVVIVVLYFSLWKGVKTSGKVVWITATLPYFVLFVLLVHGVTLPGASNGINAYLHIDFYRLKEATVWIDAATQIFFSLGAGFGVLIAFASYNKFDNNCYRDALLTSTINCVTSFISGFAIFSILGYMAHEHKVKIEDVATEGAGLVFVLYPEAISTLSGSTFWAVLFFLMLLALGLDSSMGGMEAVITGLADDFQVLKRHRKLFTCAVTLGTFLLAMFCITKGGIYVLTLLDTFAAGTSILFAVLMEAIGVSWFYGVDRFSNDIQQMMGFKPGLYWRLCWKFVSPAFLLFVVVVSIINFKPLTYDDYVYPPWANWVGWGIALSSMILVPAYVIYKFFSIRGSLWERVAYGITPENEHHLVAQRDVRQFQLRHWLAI
T2 sequence (P31652 whole entry): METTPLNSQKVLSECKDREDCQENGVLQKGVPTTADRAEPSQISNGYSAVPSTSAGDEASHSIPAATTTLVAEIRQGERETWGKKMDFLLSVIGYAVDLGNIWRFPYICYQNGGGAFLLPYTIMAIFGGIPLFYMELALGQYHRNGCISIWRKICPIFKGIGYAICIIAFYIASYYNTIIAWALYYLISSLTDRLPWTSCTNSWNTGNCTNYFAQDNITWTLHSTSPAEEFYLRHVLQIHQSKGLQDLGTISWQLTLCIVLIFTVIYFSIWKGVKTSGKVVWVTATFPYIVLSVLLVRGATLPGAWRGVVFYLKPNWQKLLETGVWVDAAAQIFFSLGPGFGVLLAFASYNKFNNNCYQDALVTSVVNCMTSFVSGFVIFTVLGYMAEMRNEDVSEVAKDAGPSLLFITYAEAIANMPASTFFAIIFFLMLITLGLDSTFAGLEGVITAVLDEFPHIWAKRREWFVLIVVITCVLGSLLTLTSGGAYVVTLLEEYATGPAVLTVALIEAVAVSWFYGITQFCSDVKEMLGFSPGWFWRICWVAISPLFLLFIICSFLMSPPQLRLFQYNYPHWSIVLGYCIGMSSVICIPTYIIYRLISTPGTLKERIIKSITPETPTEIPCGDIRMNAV

`O=[N+]([O-])c1ccc(/C(=N\Cc2ccccc2)N2CCNCC2)cc1` (as salt: hydrochloride) [Compound I-2, (E)-N-((4-Nitrophenyl)(piperazin-1-yl)methylene)-1-phenylmethanaminehydrochloride] gave a melting point of 230 to 231 °C.
Same read-out and setting: as for `Clc1ccccc1/C(=N\Cc1ccccc1)N1CCNCC1` (as salt: hydrochloride) [Compound I-3, (E)-N-((2-Chlorophenyl)(piperazin-1-yl)methylene)-1-phenylmethanaminehydrochloride], the figure is 142 to 144 °C.
Take `O=[N+]([O-])c1ccc(/C(=N\Cc2ccccc2)N2CCNCC2)cc1` [Compound I-2, (E)-N-((4-Nitrophenyl)(piperazin-1-yl)methylene)-1-phenylmethanaminehydrochloride]: the inhibition at 10 µM in series [1] is 66%; in series [2], 38%.
Taken in the same sequence, the figures for `Clc1ccccc1/C(=N\Cc1ccccc1)N1CCNCC1` [Compound I-3, (E)-N-((2-Chlorophenyl)(piperazin-1-yl)methylene)-1-phenylmethanaminehydrochloride] were 65% and 48%.
The matching figures for `Clc1cccc(/C(=N\Cc2ccccc2)N2CCNCC2)c1` [Compound I-4, (E)-N-((3-Chlorophenyl)(piperazin-1-yl)methylene)-1-phenylmethanaminehydrochloride]: 63% and 58%.
In the case of `Clc1ccc(/C(=N\Cc2ccccc2)N2CCNCC2)cc1` [Compound I-5, (E)-N-((4-Chlorophenyl)(piperazin-1-yl)methylene)-1-phenylmethanaminehydrochloride], the inhibition at 10 µM in series [1] turned out to be 57%; in series [2], 47%.
Taken in the same sequence, the figures for `Fc1ccc(/C(=N\Cc2ccccc2)N2CCNCC2)cc1` [Compound I-6, (E)-N-((4-Fluorophenyl)(piperazin-1-yl)methylene)-1-phenylmethanaminehydrochloride] were 39% and 17%.
Taken in the same sequence, the figures for `Fc1ccccc1/C(=N\Cc1ccccc1)N1CCNCC1` [Compound I-7, (E)-N-((2-Fluorophenyl)(piperazin-1-yl)methylene)-1-phenylmethanaminehydrochloride] were 35% and 38%.
Taken in the same sequence, the figures for `N#Cc1ccc(/C(=N\Cc2ccccc2)N2CCNCC2)cc1` [Compound I-8, (E)-4-((Benzylimino)(piperazin-1-yl)methyl)benzonitrilehydrochloride] were 67% and 54%.
Consider `N#Cc1cccc(/C(=N\Cc2ccccc2)N2CCNCC2)c1` [Compound I-9, (E)-3-((Benzylimino)(piperazin-1-yl)methyl)benzonitrilehydrochloride], for which the inhibition at 10 µM came to 51% in series [1] and 65% in series [2].
For `Cc1ccc(/C(=N\Cc2ccccc2)N2CCNCC2)cc1` [Compound I-10, (E)-1-Phenyl-N-(piperazin-1-yl(p-tolyl)methylene)methanaminehydrochloride], the figures for the inhibition at 10 µM in series [1] and in series [2] were 47% and 61%, respectively.
Taken in the same sequence, the figures for `O=[N+]([O-])c1ccc(/C(=N\Cc2ccccc2)N2CCNCC2)c(Cl)c1` [Compound I-11, (E)-N-((2-Chloro-4-nitrophenyl)(piperazin-1-yl)methylene)-1-phenylmethanaminehydrochloride] were 49% and 50%.
Taken in the same sequence, the figures for `O=[N+]([O-])c1ccc(/C(=N\Cc2ccc(Cl)cc2)N2CCNCC2)cc1` [Compound I-12, (E)-1-(4-Chlorophenyl)-N-((4-nitrophenyl)(piperazin-1-yl)methylene)methanaminehydrochloride] were 81% and 51%.
The matching figures for `Clc1ccc(C/N=C(\c2ccccc2Cl)N2CCNCC2)cc1` [Compound I-13, (E)-1-(4-Chlorophenyl)-N-((2-chlorophenyl)(piperazin-1-yl)methylene)methanaminehydrochloride]: 84% and 67%.
Take `Clc1ccc(C/N=C(\c2cccc(Cl)c2)N2CCNCC2)cc1` [Compound I-14, (E)-1-(4-Chlorophenyl)-N-((3-chlorophenyl)(piperazin-1-yl)methylene)methanaminehydrochloride]: the inhibition at 10 µM is 60% in series [1] and 76% in series [2].
The matching figures for `Clc1ccc(C/N=C(\c2ccc(Cl)cc2)N2CCNCC2)cc1` [Compound I-15, (E)-1-(4-Chlorophenyl)-N-((4-chlorophenyl)(piperazin-1-yl)methylene)methanaminehydrochloride]: 68% and 48%.
The matching figures for `Fc1ccc(/C(=N\Cc2ccc(Cl)cc2)N2CCNCC2)cc1` [Compound I-16, (E)-1-(4-Chlorophenyl)-N-((4-fluorophenyl)(piperazin-1-yl)methylene)methanaminehydrochloride]: 26% and 45%.
Taken in the same sequence, the figures for `Fc1ccccc1/C(=N\Cc1ccc(Cl)cc1)N1CCNCC1` [Compound I-17, (E)-1-(4-Chlorophenyl)-N-((2-fluorophenyl)(piperazin-1-yl)methylene)methanaminehydrochloride] were 27% and 43%.
For `N#Cc1ccc(/C(=N\Cc2ccc(Cl)cc2)N2CCNCC2)cc1` [Compound I-18, (E)-1-(4-Chlorophenyl)-N-((4-cyanophenyl)(piperazin-1-yl)methylene)methanaminehydrochloride], the inhibition at 10 µM in series [1] is 63%; in series [2], 75%.
Taken in the same sequence, the figures for `Cc1ccc(/C(=N\Cc2ccc(Cl)cc2)N2CCNCC2)cc1` [Compound I-20, (E)-1-(4-Chlorophenyl)-N-(piperazin-1-yl(p-tolyl)methylene)methanaminehydrochloride] were 35% and 72%.
As for `COc1ccc(C/N=C(\c2ccc([N+](=O)[O-])cc2)N2CCNCC2)cc1` [Compound I-21, (E)-1-(4-Methoxyphenyl)-N-((4-nitrophenyl)(piperazin-1-yl)methylene)methanaminehydrochloride], the inhibition at 10 µM worked out at 57% in series [1] and 34% in series [2].
Taken in the same sequence, the figures for `c1ccc(/C(=N\Cc2cccc3ccccc23)N2CCNCC2)cc1` [II-1, (E)-1-(Naphthalen-1-yl)-N-(phenyl(piperazin-1-yl)methylene)methanaminehydrochloride] were 67% and 80%.
Taken in the same sequence, the figures for `O=[N+]([O-])c1ccc(/C(=N\Cc2cccc3ccccc23)N2CCNCC2)cc1` [II-2, (E)-1-(Naphthalen-1-yl)-N-((4-nitrophenyl)(piperazin-1-yl)methylene)methanaminehydrochloride] were 52% and 57%.
The matching figures for `Fc1ccc(/C(=N\Cc2cccc3ccccc23)N2CCNCC2)cc1` [II-3, (E)-N-((4-Fluorophenyl)(piperazin-1-yl)methylene)-1-(naphthalen-1-yl)methanaminehydrochloride]: 76% and 84%.
As to `Clc1cccc(/C(=N\Cc2cccc3ccccc23)N2CCNCC2)c1` [II-6, (E)-N-((3-Chlorophenyl)(piperazin-1-yl)methylene)-1-(naphthalen-1-yl)methanaminehydrochloride], the inhibition at 10 µM in series [1] amounted to 75%; in series [2], 65%.
The matching figures for `Clc1ccc(/C(=N\Cc2cccc3ccccc23)N2CCNCC2)cc1` [II-7, (E)-N-((4-Chlorophenyl)(piperazin-1-yl)methylene)-1-(naphthalen-1-yl)methanaminehydrochloride]: 59% and 62%.
The matching figures for `N#Cc1ccc(/C(=N\Cc2cccc3ccccc23)N2CCNCC2)cc1` [II-8, (E)-4-(((Naphthalen-1-ylmethyl)imino)(piperazin-1-yl)methyl)benzonitrilehydrochloride]: 46% and 70%.
Consider `N#Cc1cccc(/C(=N\Cc2cccc3ccccc23)N2CCNCC2)c1` [II-9, (E)-3-(((Naphthalen-1-ylmethyl)imino)(piperazin-1-yl)methyl)benzonitrilehydrochloride], for which the inhibition at 10 µM in series [1] turned out to be 54%; in series [2], 88%.
Taken in the same sequence, the figures for `Cc1ccc(/C(=N\Cc2cccc3ccccc23)N2CCNCC2)cc1` [II-10, (E)-1-(Naphthalen-1-yl)-N-(piperazin-1-yl(p-tolyl)methylene)methanaminehydrochloride] were 63% and 82%.
Taken in the same sequence, the figures for `O=[N+]([O-])c1cccc2c(/C(=N\Cc3ccccc3)N3CCNCC3)cccc12` [III-1, (E)-N-((5-Nitronaphthalen-1-yl)(piperazin-1-yl)methylene)-1-phenylmethanaminehydrochloride] were 66% and 73%.
